Measurements reported in patent US20260184807A1, “Methods for Treating Rheumatoid Arthritis Using a Syndecan-1 Inhibitor or Syntenin-1 Inhibitor” (The United States Government as represented by the …, priority 2022, published 2026).

Tested on: HUVECs
Experiment: Syntenin-1 stimulation and inhibition in HUVECs (qRT-PCR)
Assay type: cell-based, human
Details: Syntenin-1 1000 ng/ml, mTORi 1 μM, cMYCi 50 μM
Description: FIGS. 11A-J show Syntenin-1 reprogrammed endothelial cells display a robust inflammatory phenotype. Relative expression of Syntenin-1 (FIG. 11A) or SDC-1 (FIG. 11B) was determined by RNAseq (Lewis M J, et al. Cell reports. 2019; 28:2455-2470 e2455) in synovial tissue biopsies from RA non-responsive (Non-R)(ΔDAS28≤0.6, n=16-23) and moderate (ΔDAS28 1.2 & >0.6, n=21) and good responsive (ΔDAS28>1.2, n=35-50) patients. […] HUVECs were treated with PBS (ctrl) or Syntenin-1 (1000 ng/ml) for 6 h and transcription of IRFs (FIG. 11E), inflammatory mediators (FIG. 11F), TLRs (FIG. 11I), and pro-repair factors (FIG. 11J) were assessed by qRT-PCR (n=7-12). HUVECs were treated with PBS or Syntenin-1 (1000 ng/ml) in the presence or absence of SDC-1 Ab (SDCab; 1:100), IL-5R Ab (IL5Ra; 2 μg/ml), or PDZli (PDZ1; 10 μM) for 6 h before quantifying transcription levels of TNFα (FIG. 11G) and IL-1β (FIG. 11H), (5-7). Data are presented as mean±SEM; significant differences were determined by the Mann-Whitney test, 2way ANOVA, or one-way ANOVA. *p<0.05, **p<0.01, ***p<0.001, ****p<0.0001. […]
Syntenin-1 stimulation and inhibition. […] Cells were subsequently harvested in TRIzol reagent (Life Technologies) or RIPA buffer (Cell Signaling Technology) for mRNA quantification and western blot analysis; conditioned media was collected for ELISA.
Quantitative Real-Time PCR. […]

For `CO[C@H]1C[C@@H]2CC[C@@H](C)[C@@](O)(O2)C(=O)C(=O)N2CCCC[C@H]2C(=O)O[C@H]([C@H](C)C[C@@H]2CC[C@@H](OCCO)[C@H](OC)C2)CC(=O)[C@H](C)/C=C(\C)[C@@H](O)[C@@H](OC)C(=O)[C@H](C)C[C@H](C)/C=C/C=C/C=C/1C` [mTORi, Everolimus], the “TNF expression in Syntenin-1-reconfigured endothelial cells” value (HIF1αi 2 μM, FIG. 13H) was “diminished” and the “Syntenin-1-elevated HIF1α expression levels” value (FIG. 13E) was “dysregulated”.
